Experimental data taken from PMC8776730 (Nature Communications, 2022).
Values belong to the substance of their own block, whether it stands above or below them.

What was measured:
[1] = Critical assembly concentration (CAC) by pyrene fluorescence probe; assay type: physicochemical; conditions: for I1/I3: pyrene fluorescence
From the text: In order to study the molecular design and their assembly behavior, we modular designed and synthesized seven molecules (Table 1), which respectively were BIVA probe: M1 (mPEG-GPAKLVFFGC(IR783)GRGD); the non- FAP-α tailoring molecule: M2 (mPEG-AGGKLVFFGC(IR783)GRGD) scrambled response tailoring motif of Gly-Pro-Ala with Ala-Gly-Gly; the non-labeling molecule of M1: M3 (mPEG-GPAKLVFFGCGRGD) removed IR783 labeling; FAP-α tailoring residue of M1: R-M1 (AKLVFFGC(IR783)GRGD); the non-targeting molecule: M4 (mPEG-GPAKLVFFGC(IR783)GDTG) scrambled targeting tailoring motif of Arg-Gly-Asp with Asp-Thr-Gly; the non-labeling molecule of M2: M5 (mPEG-AGGKLVFFGCGRGD) removed IR783 labeling; FAP-α tailoring residue of M3: R-M3 (AKLVFFGCGRGD). All the synthesized procedure (Supplementary Fig. 1) and characterizations of these seven molecules can be found in SI (Supplementary Figs. 2–8). […] Without IR783 labeling, molecules of M3 and M5 decreased the CAC value in solution relative to M1 and M2, which could be attributed to the proximity of the steric hindrance of hydrophilic IR783 to the self-assembly motif (Supplementary Fig. 9). […] The CAC was quantitatively calculated by fluorescence probe of pyrene.

[2] = Secondary structure proportions from CD spectra; assay type: physicochemical; conditions: calculated by Reed's Reference based on CD spectra; DI water
From the text: To further evaluate the assembled structures, the corresponding circular dichroism (CD), Fourier transform infrared (FTIR) spectroscopy, and wide-angle X-ray scattering (WAXS) spectroscopy were applied. […] The FITR spectra of M1 and M3 in Fig. 3b observed the intermolecular interactions. The peaks at 1629 cm^−1, 1675 cm^−1, and 1698 cm^–1 of M3 indicated anti-parallel β-sheet structure (represent by green arrow heads), peaks at 1648 cm^−1 and 1663 cm^−1 indicated parallel beta sheet structure (represent by blue arrow heads), the existence of 1654 cm^−1 indicate α-Helix structure in M1 which verified the results deduced by CD in Fig. 3a[29],[30]. […] As a homologous sequence with amyloid β-protein (Aβ), the self-assembly motif with peptide sequence of KLVFFGCG had similar aggregation kinetics to (Aβ)42 peptide, which occurred via dynamic growth from oligomers to amyloid fibrils. The aggregation started from the freshly isolated monomers of R-M1, and precipitates were separated in 1 min and 1 h, respectively. […] After analyzed the CD spectra of M1, M3, and R-M1 (Fig. 3e), it can be clearly seen that the main secondary conformation of M1 was Random, the M3 was hybrid of Helix and Beta, and the R-M1 was Beta (Supplementary Table 1). All the results confirmed the conclusion from FTIR spectra. […] The dynamic growth procedure was like the 8-anilino-1-naphthalenesulfonic acid (ANS) stained curve (Supplementary Fig. 12). As known, ANS was sensitive to hydrophobic interaction. When R-M1 were in the initial oligomer, the fluorescence intensity of ANS increased due to the enhanced hydrophobicity. When the molecules were elongated and stacked in higher ordered nanofibrils, the blue shift of ANS in the β-sheet structures reduced the fluorescence. The molecular packing mode of well-ordered fibrils of R-M1 in Fig. 3g observed a weak reflection at 4.9 Å as laminates space and a strong broad reflection at 10.3 Å as sheet space, which was illustrated in the inserted figure. The fibril morphology was characterized by transmission electron microscopy (TEM) imaging (Fig. 3f). The statistical calculation of the fiber diameter in TEM images was 5.0 ± 0.4 nm (Supplementary Fig. 13), which was corresponded to the theoretical calculated two molecules length of R-M1. We assumed that the nanofibers were assembled by twisted R-M1 molecules centered on self-assembly motif.
The secondary structures of M1, M3 and R-M1 were verified by CD spectroscopy (JASCO Corporation, JC-1500) at room temperature with a cell path length of 1 cm. M1, […] and R-M1 were diluted to 100 μM with deionized water at 25 °C and allowed to stand for 12 h for complete assembly. Detail parameter setting were CD scale:200 mdeg/1.0Dod, measure range: 260~190 nm, scanning speed: 500 nm/min, bandwidth: 1.00 nm, and data pitch: 0.5 nm. All spectra were the average of three measurements.
Supplementary Table 1∣ Secondary structure proportions ofM1, M3 and R-M1 calculated by Reed’s Reference based on […]

[3] = Nanofiber dynamic growth, ThT staining; assay type: physicochemical; conditions: aggregation curve with ThT trace
MIA PaCa-2 cells [4] = assay: Cellular imaging (CLSM) of FITC-labelled molecules; assay type: cell-based
Method: To further confirm this hypothesis, the M1 and M2 were equally labeled by FITC for cell imaging (Fig. 5b). To simulate the dynamic physiological condition, the cell culture medium was replaced every 15 min. After 1 h of incubation with M1 and M2 at the same molecule molar concentration, there occurred significant differences between the two molecules (Fig. 5c). […] The huge difference can be explained by the fact that the secondary assembly rate broke the balance between the targeted ligand and receptor, and thus tended to a stable assembly interaction. The retention efficiency depended on the assembly rate constant Ka. Meanwhile, the rapid dynamic assembly of BIVA probe in situ around the cell membrane, and contributed to the efficient formation and retention of nanofibers on the cell profile. When the incubation time was delayed up to 2 h, some components could be endocytosed into the cells, but most of them were found on the membranes (Supplementary Fig. 18). […] Then, the isolated cells were collected and lysed, the extracted cell membrane fragments were stained with ThT. […] In order to verify the influence of the addition of the targeting module of the probe molecules, we explored the imaging of R-M1 and M4 on cells.
(§1) Fig. 5 The BIVA effect with enhanced targeting to pancreatic tumor cell for boundaries imaging. a Illustration of BIVA effect: active targeting and assembly/aggregate induced retention (AIR) effect. b Chemical structure of FITC labeling. c 2D and 3D confocal images of M2 with active targeting property and M1 with BIVA effect on MIA PaCa-2 cells after incubation for 1 h. d The distribution of M1 on MIA PaCa-2 cell. e ThT staining of the lysed cell membrane of MIA PaCa-2. f, Illustration of migration inhibition after treated by BIVA probe. g The image of the migrated cells after treatment of PBS (blank), M2, M4, and M1. Scale bar: 100 μm. h The pie diagram of quantitative statistical calculation of the migrated cells (blue) in different groups. The blank control was set as 100% migrated cells.
MIA PaCa-2 cells were digested with trypsin, counted with cell counting plate, diluted to 1 × 10^4 with DMEM medium, and 1 mL to 1 cm diameter confocal microscope dish was taken. The cells were incubated in […] atmosphere for 24 h. The medium containing M1 and M2 (50 μM) was replaced and incubated with the cells for 2 h. The cells were washed with PBS for 3 times. CLSM (Zeiss 710) was used to image cells under 40 × objective, excitation = 488 nm, and emission >520 nm.
Supplementary Fig. 19 ∣ CLSM images of Miapaca-2 cells treated with different molecules or M1 under different conditions. […]

MIA PaCa-2 cells [5] = assay: Transwell migration assay; assay type: cell-based; conditions: for migrated cells (Fig S20): MIA PaCa-2 cells
Method: as §1
In order to further understand the contribution of the active targeting and AIR effect during locating of the cells, the cell transwell experiment was used to quantitively evaluate interference of the cell migration based on M1, M2, and M4 (Fig. 5f). As expected, untreated cells were easy to migrate to the lower chamber, while the cells treated with active targeting molecule M2 and assembled molecule M4, the migration of cell were reduced. Under the same molar concentration, the M1 treatment group had the most inference on cell migration (Fig. 5g). […] Based on those results, we speculate M1 can be more enriched in the tumor site and form fibers through assembly to inhibit tumor cell migration compared to M2 and M4 which have no ability to target and adhere on the cell membrane.
Transwell migration assay occurred in chemotaxis chambers containing 24 wells. […] Bottom chambers contained DMEM medium containing 10% FBS. After 24 h of treatment with M1, M2, and M4 (150 μM), we fixed cells using 4% paraformaldehyde and stained with 0.25% crystal violet solution. The stained cells were counted using a microscope.
Supplementary Fig. 20∣ The quantitative results of the migrated cells after treatment of PBS (blank), M2, […] and
M1 (Fig 5g). The mean of results of fiveparallel experiments is shown and data were expressed as mean ± SD (n=5).
pM1 = 5.85E-06, pM2 = 5.94E-05, pM4 = 3.16 E-04, Statisticalanalysis: one-way ANOVA followed by post hoc Tukey’s
(§2) (1 picture or pasted object on this page, not shown here)

MIA PaCa-2 cells [6] = assay: Cytotoxicity, CCK-8 assay; assay type: cell-based; conditions: CCK-8, 24 h, at high concentration of 300 μM
Method: The cytotoxicity of M1 and M2 was evaluated using CCK-8 assay in MIA PaCa-2 cells. Cells were seeded into 96-well plates at a density of 5 × 10^4 cells per well and placed in an incubator for 14 h. Subsequently, the sample was diluted into a series of different concentrations (0, 50, 100, 150, 200, 250, 300, and 350 μM) and incubated with cells for 24 h. After that, 10 μL of CCK-8 solution was added to each well and incubated for 2 h. The absorbance of blank wells (Ab), sample wells (As) and control wells (Ac) were measured with a microplate reader at a test wavelength of 450 nm and a reference wavelength of 690 nm. The cell viability rate (%) is equal to (As -Ab) / (Ac -Ab) ×100%. All experiments were repeated in triplicate.
Supplementary Fig. 21∣ Cellviability assay of Miapaca-2 cells treated with a series concentration of M1 and M2 for 24 h.
Tested by Cell Counting Kit-8 (Beyotime, C0039) The mean of results of six parallel experiments isshown and data were
expressed as mean ± SD (n=6).
as §2

MIA PaCa-2 tumor = conditions: mouse, in vivo, 16 mg/kg
Method: In order to reduce systemic error and individual difference, we constructed the subcutaneous pancreatic cancer model in mice for quantitatively calculating of the metabolic data.
All the animal experiments were performed in accordance with the Guide for the Care and Use of Laboratory Animals approved by the Committee for Animal Research of the National Center for Nanoscience and Technology. The MIA PaCa-2 tumor-bearing mice were intravenously injected with ICG, M1 and M2 (16 mg/kg), respectively for in vivo fluorescence imaging with in vivo spectrum imaging system. Finally, mice were sacrificed to collect the major organs and tumors for ex vivo fluorescence imaging.

[7] = mouse, in vivo, iv, 16 mg/kg
[8] = MIA PaCa-2 cells / Miapaca-2 cell lysis; conditions: up to 2 h
[9] = MIA PaCa-2 cells (supplement contents: Miapaca-2 cell lysis); conditions: up to 2 h
[10] = system: Recombinant Human Fibroblast Activation Protein-α (FAP-α); assay: FAP-α in buffer: 50 mM Tris, 1 M NaCl, 1 mg/mL, BSA, pH 7.5; conditions: up to 12 h

I1/I3 ([1]; conc 1.56 μM): 1.233
I1/I3 ([1]; conc 12.5 μM): 1.275
I1/I3 ([1]; conc 25 μM): 1.246
I1/I3 ([1]; conc 100 μM): 1.302
I1/I3 ([1]; conc 200 μM): 1.43
Substance: AKLVFFGC(IR783)GRGD [R-M1, FAP-α tailoring residue of M1]
Critical assembly concentration (CAC) ([1]; aqueous solution, analyzed based on pyrene fluorescence): 37.2 µM
Secondary structure proportion: Beta [2]: 72%
Secondary structure proportion: Helix [2]: 0.5%
Secondary structure proportion: Random [2]: 0%
Secondary structure proportion: Turn [2]: 27.5%
final plain phase [3]: > 30 min
state in the medium (solubility) (MIA PaCa-2 cells [4]; co-incubation with MIA PaCa-2 cells): insoluble suspended mixture

Substance: mPEG-AGGKLVFFGC(IR783)GRGD [M2]
fluorescence signal on the cell membrane (MIA PaCa-2 cells [4]; FITC-labelled molecules, MIA PaCa-2 cells, 1 h incubation, CLSM): significantly reduced the fluorescence signal
emigrate (migrated cells relative to blank) (MIA PaCa-2 cells [5]; MIA PaCa-2, 150 μM, 24 h, blank control = 1): 0.6397
migrated cells (Fig S20) (MIA PaCa-2 cells [5]; averge of groups 1-3): 587
migrated cells (Fig S20) (MIA PaCa-2 cells [5]; group 1): 547
migrated cells (Fig S20) (MIA PaCa-2 cells [5]; group 2): 625
migrated cells (Fig S20) (MIA PaCa-2 cells [5]; group 3): 589
cytotoxicity (MIA PaCa-2 cells [6]): no obvious cytotoxicity
reduction of tumor fluorescence signal between 12 h and 120 h (MIA PaCa-2 tumor): disappeared completely
time of distribution and accumulation in the tumor area (MIA PaCa-2 tumor; iv): 0.1 to 24 h
blood circulation half-life (t1/2) [7]: 1.7 ± 0.067 h

fragment found [8]: PEG residues
fragment found [9]: R-M1
cleaved bond [10]: Pro-Ala
Substance: mPEG-GPAKLVFFGC(IR783)GRGD
